Several values for one entry are separate records, joined by “and”; a condition that tells them apart may be missing. Identical values can stand only once.

A short description of data set [1]: Carboplatin quantified by LC-MS in mouse plasma and TNBC xenograft tissue. It counts as in vivo, beige SCID mice. How it is done:
Forty-one beige DF mice with severe combined immunodeficiency (SCID) (Fox Chase, strain R035948:1) were implanted with 10^6 MDA-MB-231 (N = 10), HCC70 N = 21) or MDA-MB-436 (N = 10) TNBC cells obtained from the ATCC bilaterally in the mammary fat pads (Fig. 1). When the TNBC xenograft tissue size exceeded 200 mm^3, the mice were randomized across the treatment cohorts. Animals were randomized into veliparib low dose (20 mg/kg), veliparib high dose (60 mg/kg) or placebo + C, introduced via oral gavage three times daily for 3 days (all but the two DCE-MRI study mice). Carboplatin at 60 mg/kg was administered intravenously on day 1 and day 2. […]
Thirty-nine mice were euthanized approximately 3 h after the last dose of veliparib and 24 h after the last dose of carboplatin; two mice used in the DCE-MRI pilot were euthanized 1.5 h after single-dose administration of veliparib and carboplatin (Fig. 1). […] A separate fresh-frozen portion of each tissue per animal was ground for quantification of veliparib and carboplatin by LC-MS. […]
Plasma samples (50 μl ) were prepared using protein precipitation with acetonitrile. […] Volume and weight of the pulverized tumor was determined. […]
Veliparib/carboplatin quantification: […]
Concentration of veliparib in tissues were calculated in mg/g and transferred to mg/L by estimating the average density of the livers, muscles and tumors. […]

The test system of a further data set is nuclear DNA. The experiment in a line: Platinum adducts (covalent nuclear DNA-binding) by ICP-MS in TNBC xenograft tumor sections. In kind it is in vivo, beige SCID mice. As to the method: Thirty-nine mice were euthanized approximately 3 h after the last dose of veliparib and 24 h after the last dose of carboplatin; two mice used in the DCE-MRI pilot were euthanized 1.5 h after single-dose administration of veliparib and carboplatin (Fig. 1). Bilateral xenograft tumors and liver and muscle (quadriceps) tissues were harvested. Tissues were cut into three pieces and either embedded in optimum cutting temperature (OCT) formulation or were directly snap frozen in liquid-nitrogen-cooled isopentane and stored at − 80 °C until analysis. […] A separate fresh-frozen portion of each tissue per animal was ground for quantification of veliparib and carboplatin by LC-MS. Method development and details of the techniques are described in Additional file 1a-c. […]
b). Technical aspects of the ICP-MS method development. […]
DNA extraction procedure:
The DNA extraction was based on previous publications. 4 In short, 44 μL 1 mol L −1 NH4HCO3, 20 μL 20% (w/v) SDS, and 6 μL 1% (w/v) proteinase K solution were added successively, and incubated for 24hours using a thermomixer. After the digestion was complete, 146 μL saturated 6 mol L−1 NaCl was added to each tube and the tubes were shaken vigorously to precipitate proteins. The tubes were centrifuged for 10min at 2000 g and the supernatant containing the DNA was transferred to another tube. Subsequently, the supernatant was shaken, centrifuged, and transferred to another tube. Following this, 1.5ml absolute ethanol was added to precipitate the DNA and centrifuged from 30 minutes at 21 Kg at 4°C. The DNA was washed twice with 75% ethanol and was subsequently dissolved in 30 μL water. DNA concentrations were analyzed by measuring the absorbance at 260 nm using Nanodrop 1000 spectophotometer (NanoDrop).
Carboplatin adduct quantification:
The quantity of the carboplatin-adducts per mg DNA was quantified (Figure S8) using a previously validated […]
Figure S8: Example graph of mass spectrum of platinum in DNA extraction by ICP-MS.

A further data set concerns MDA-MB-231. More on the design: method as in PMID 21633166, PMID 21707865. Conditions: ref [23], [25]; cited from earlier work.
Details of data set [2]: method as in PMID 19364967. Conditions: ref [46]; cited from earlier work.
The subject of another data set is PARP1. Conditions: read-out: IC50 for PARP1 inhibition; ref [3], [31]; cited from earlier work.

Take `N.N.O=C([O-])C1(C(=O)[O-])CCC1.[Pt+2]` [carboplatin]: in data set [1] (24 h after administration, MALDI-MSI and LC-MS), the “Carboplatin in TNBC xenograft tissues” value is listed as “undetectable”. Also, the “Median conc. (RSE %)” value in data set [1] (plasma, 0.6 h after carboplatin 60 mg/kg intravenously, LC-MS) is 24 mg/L and 24 (20) mg/L. For the same compound, the “Median conc. (RSE %), carboplatin adducts” value with nuclear DNA (HCC70 xenografts) was 1.85 μmol/g DNA; in the data set with nuclear DNA (HCC70 xenografts, listed as Carboplatin), 1.85 (42%) μmol/g DNA; with nuclear DNA (MDA-MB-231 xenografts), 0.55 μmol/g DNA; with nuclear DNA (MDA-MB-231 xenografts, listed as Carboplatin), 0.55 (23%) μmol/g DNA; in the data set with nuclear DNA (MDA-MB-436 xenografts), 0.54 μmol/g DNA; in the data set with nuclear DNA (MDA-MB-436 xenografts, listed as Carboplatin), 0.54 (27%) μmol/g DNA. Further, the “Median conc. (RSE %), carboplatin adducts” value in the data set on nuclear DNA (all TNBC xenograft tissue, 24 h after two carboplatin administrations, ICP-MS) was 0.55 (30%) μmol/g DNA; in the data set with nuclear DNA (carboplatin combined with placebo), 0.476 (57) μmol/g DNA; in the data set on nuclear DNA (carboplatin combined with veliparib 60mg/kg for 3 days) it was 0.977 (33) μmol/g DNA. This compound also registered a Median platinum adducts in the data set on nuclear DNA (xenograft tumor sections) of 546.3 nmol/g DNA.
The term IC50 denotes the concentration needed to halve the response being measured. For the compound `C[C@]1(c2nc3c(C(N)=O)cccc3[nH]2)CCCN1` [veliparib], the Sensitivity in vitro result in the data set with MDA-MB-231 is listed as “sensitivity”. For the same compound, the “Renal clearance as share of elimination” value in data set [2] is given as 70%. For the same compound, the IC50 with PARP1 was […].
